From patent publication US20250136607A1 (REGOR PHARMACEUTICALS, INC., priority 2021, published 2025)

Columns and labels:
[1] = system: Citrullinated Histone H3 in dHL-60 cells (differentiated HL-60); test: dHL-60 Cit-H3 ELISA assay; assay type: cell-based, human; settings: Homo sapiens, HL-60, 3 h, stimulation with 25 μM A23187 for 3 h, read-out: Average IC50 Abs
In short: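 HL-60 cells differentiated 72 h with DMF, plated at 1×10^5/well, pretreated 30 min with compound (8-point 3-fold series, 0.2% DMSO), then stimulated 3 h at 37 °C with 25 μM A23187 plus S7 nuclease. Supernatant citrullinated H3 quantified by HRP ELISA at 450 nm; IC50 by four-parameter fit.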

[2] = target: Protein arginine deiminase 4 (PAD4) (Homo sapiens, UniProt Q9UM07); test: PAD4 ammonia release assay; assay type: biochemical; settings: PAD4 ammonia release assay, BAEE substrate, 60 min at RT; read-out: Average IC50 Abs
In short: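 PAD4 (20 nM, 2× working solution) was preincubated with compound for 15 min at RT in 100 mM HEPES pH 8.0, 2 mM CaCl2, 50 mM NaCl, 0.1 mM TCEP, BSA at 1.25% DMSO. BAEE (600 μM, 2× mix) reacted 60 min, then OPA/DTT/EDTA detection for 120 min. IC50 came from a 4-parameter fit, normalized to 50 μM reference (100%) and DMSO (0%).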

Protein arginine deiminase 4 (PAD4), sequence (Q9UM07 whole entry): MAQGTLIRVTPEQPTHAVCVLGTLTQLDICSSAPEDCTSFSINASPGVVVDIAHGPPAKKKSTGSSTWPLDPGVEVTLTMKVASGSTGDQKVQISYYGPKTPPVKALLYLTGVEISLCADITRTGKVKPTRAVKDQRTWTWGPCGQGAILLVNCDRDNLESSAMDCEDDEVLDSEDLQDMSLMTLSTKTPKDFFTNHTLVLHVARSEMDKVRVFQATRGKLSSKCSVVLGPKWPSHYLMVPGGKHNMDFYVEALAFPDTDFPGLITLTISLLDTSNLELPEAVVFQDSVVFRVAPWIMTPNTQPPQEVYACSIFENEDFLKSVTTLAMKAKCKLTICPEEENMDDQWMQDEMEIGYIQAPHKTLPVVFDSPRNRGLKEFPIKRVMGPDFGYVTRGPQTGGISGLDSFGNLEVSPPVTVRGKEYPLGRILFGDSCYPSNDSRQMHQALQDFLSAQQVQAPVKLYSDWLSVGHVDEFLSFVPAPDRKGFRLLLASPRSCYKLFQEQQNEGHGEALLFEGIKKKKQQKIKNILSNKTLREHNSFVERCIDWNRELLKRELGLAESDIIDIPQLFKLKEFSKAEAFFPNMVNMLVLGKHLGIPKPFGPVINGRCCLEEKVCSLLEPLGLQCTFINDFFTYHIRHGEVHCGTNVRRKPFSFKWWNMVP

IC50 [1] | IC50 [2] | Compound
≤ 100 nM | ≤ 100 nM | Cn1c(-c2cc3ccc4cn[nH]c4c3n2CC2CC2)nc2cc(C(=O)N3C[C@H]4CC[C@@H]3[C@@H]4N)cc(F)c21 [Example 157, ((1R,4R,7R)-7-amino-2-azabicyclo[2.2.1]heptan-2-yl)(2-(8-(cyclopropylmethyl)-1,8-dihydropyrrolo[3,2-g]indazol-7-yl)-7-fluoro-1-methyl-1H-benzo[d]imidazol-5-yl)methanone]
≤ 100 nM | ≤ 100 nM | Cn1c(-c2cc3ccc4c(c3n2CC2CC2)NCCO4)nc2cc(C(=O)N3C[C@H]4CC[C@@H]3[C@@H]4N)cc(F)c21 [Example 158, ((1R,4R,7R)-7-amino-2-azabicyclo[2.2.1]heptan-2-yl)(2-(9-(cyclopropylmethyl)-1,2,3,9-tetrahydro-[1,4]oxazino[2,3-g]indol-8-yl)-7-fluoro-1-methyl-1H-benzo[d]imidazol-5-yl)methanone]
≤ 100 nM | ≤ 100 nM | Cn1c(-c2cc3ccc4c(c3n2CC2CC2)NCCS4)nc2cc(C(=O)N3C[C@H]4CC[C@@H]3[C@@H]4N)cc(F)c21 [Example 161, ((1R,4R,7R)-7-amino-2-azabicyclo[2.2.1]heptan-2-yl)(2-(9-(cyclopropylmethyl)-1,2,3,9-tetrahydro-[1,4]thiazino[2,3-g]indol-8-yl)-7-fluoro-1-methyl-1H-benzo[d]imidazol-5-yl)methanone]
≤ 100 nM | 100 to 500 nM | Cn1c(-c2cc3cccc4c3n2C(C2CCC2)CN4)nc2cc(C(=O)N3C[C@H]4CC[C@@H]3[C@@H]4N)cc(F)c21 (stereo partly drawn) [Example 164, ((1R,4R,7R)-7-amino-2-azabicyclo[2.2.1]heptan-2-yl)(2-(3-cyclobutyl-2,3-dihydro-1H-pyrrolo[1,2,3-de]quinoxalin-5-yl)-7-fluoro-1-methyl-1H-benzo[d]imidazol-5-yl)methanone]
